Test results from patent US5318776A, “Composition for preventing graying of the hair” (priority 1988, dated 1994).

Test system: grayed hair
Experiment: Half-Head technique application to scalp of men having grayed hair
Assay type: in vivo, men (40 to 60 years old)
Settings: Example 6; hair tonic as in Example 3
Experimental: Then, the effects of preventing graying of the hair and restoring grayed hair to its natural color were evaluated by comparing the conditions of the portions observed before and after the application of Samples and the results obtained were listed in the following Table VIII. […]
Then, the effectiveness of the hair cream of the invention and that of Comp.

| Compound | effect of preventing graying of the hair and restoring grayed hair to its natural color (in words) |
| --- | --- |
| Nc1ncnc2c1nc(SCc1ccccc1)n2[C@@H]1O[C@@H]2COP(=O)(O)O[C@H]2[C@H]1O [8-benzylthio cAMP-Na] | the same effect of preventing graying of the hair and restoring grayed hair to its natural color as in Example 3 |
| CCCCOc1nc2c(N)ncnc2n1[C@@H]1O[C@@H]2COP(=O)(O)O[C@H]2[C@H]1O [8-butoxy cAMP-Na] | the same effect of preventing graying of the hair and restoring grayed hair to its natural color as in Example 3 |
| CCOc1nc2c(N)ncnc2n1[C@@H]1O[C@@H]2COP(=O)(O)O[C@H]2[C@H]1O [8-ethoxy cAMP-Na] | the same effect of preventing graying of the hair and restoring grayed hair to its natural color as in Example 3 |

Same assay, conditions: Example 7; hair cream as in Example 5

| Compound | effect of preventing graying of the hair and restoring grayed hair to its natural color (in words) |
| --- | --- |
| CCCCn1cnc2c(ncn2[C@@H]2O[C@@H]3COP(=O)([O-])O[C@H]3[C@H]2O)c1=N.[Na+] [1-butyl cAMP-Na] | the same effect of preventing graying of the hair and restoring grayed hair to its natural color as in Example 5 |
| CCn1cnc2c(ncn2[C@@H]2O[C@@H]3COP(=O)([O-])O[C@H]3[C@H]2O)c1=N.[Na+] [1-ethyl cAMP-Na] | the same effect of preventing graying of the hair and restoring grayed hair to its natural color as in Example 5 |
| CCCCCCCCn1cnc2c(ncn2[C@@H]2O[C@@H]3COP(=O)([O-])O[C@H]3[C@H]2O)c1=N.[Na+] [1-octyl cAMP-Na] | the same effect of preventing graying of the hair and restoring grayed hair to its natural color as in Example 5 |
| CCCCNc1nc2c(N)ncnc2n1[C@@H]1O[C@@H]2COP(=O)(O)O[C@H]2[C@H]1O [8-butylamino cAMP-Na] | the same effect of preventing graying of the hair and restoring grayed hair to its natural color as in Example 5 |
| CCCCSc1nc2c(N)ncnc2n1[C@@H]1O[C@@H]2COP(=O)(O)O[C@H]2[C@H]1O [8-butylthio cAMP-Na] | the same effect of preventing graying of the hair and restoring grayed hair to its natural color as in Example 5 |
| Nc1ncnc2c1nc(Cl)n2[C@@H]1O[C@@H]2COP(=O)(O)O[C@H]2[C@H]1O [8-chloro cAMP-Na] | the same effect of preventing graying of the hair and restoring grayed hair to its natural color as in Example 5 |
| CNc1nc2c(N)ncnc2n1[C@@H]1O[C@@H]2COP(=O)(O)O[C@H]2[C@H]1O [8-methylamino cAMP-Na] | the same effect of preventing graying of the hair and restoring grayed hair to its natural color as in Example 5 |
| CSc1nc2c(N)ncnc2n1[C@@H]1O[C@@H]2COP(=O)(O)O[C@H]2[C@H]1O [8-methylthio cAMP-Na] | the same effect of preventing graying of the hair and restoring grayed hair to its natural color as in Example 5 |

Test system: not listed separately
Experiment: Sensory test: degree of change in smell after standing at 30° C. for 3 months;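 on Stability S.E. (Sensory Evaluation): double circle means no smell deterioration on a four-grade scale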
Assay type: physicochemical
Settings: Example 6; hair tonic
Experimental: (§1) One month thereafter, regenerated hair was collected from a constant area and the rate (%) of generated grayed hair to all the number of hair collected was estimated. In addition, the aforementioned hair tonic type preparations were allowed to stand at 30° C. for 3 months and the residual amount of the test compounds therein was examined by liquid chromatography as well as the degree of change in smell was also evaluated by means of sensory test.
as §1, with “compositions” for “hair tonic type preparations”, “by” for “by means of”, “test. […] In addition, the abbreviation P means the averaged added molar number of ethylene oxide residues.” for “test.”

| Compound | quality deterioration such as giving out of bad smell |
| --- | --- |
| Nc1ncnc2c1nc(SCc1ccccc1)n2[C@@H]1O[C@@H]2COP(=O)(O)O[C@H]2[C@H]1O [8-benzylthio cAMP-Na] | did not cause quality deterioration such as giving out of bad smell |
| CCCCOc1nc2c(N)ncnc2n1[C@@H]1O[C@@H]2COP(=O)(O)O[C@H]2[C@H]1O [8-butoxy cAMP-Na] | did not cause quality deterioration such as giving out of bad smell |
| CCOc1nc2c(N)ncnc2n1[C@@H]1O[C@@H]2COP(=O)(O)O[C@H]2[C@H]1O [8-ethoxy cAMP-Na] | did not cause quality deterioration such as giving out of bad smell |

Same assay, conditions: Example 7; hair cream

| Compound | quality deterioration such as giving out of bad smell |
| --- | --- |
| CCCCn1cnc2c(ncn2[C@@H]2O[C@@H]3COP(=O)([O-])O[C@H]3[C@H]2O)c1=N.[Na+] [1-butyl cAMP-Na] | did not cause quality deterioration such as giving out of bad smell |
| CCn1cnc2c(ncn2[C@@H]2O[C@@H]3COP(=O)([O-])O[C@H]3[C@H]2O)c1=N.[Na+] [1-ethyl cAMP-Na] | did not cause quality deterioration such as giving out of bad smell |
| CCCCCCCCn1cnc2c(ncn2[C@@H]2O[C@@H]3COP(=O)([O-])O[C@H]3[C@H]2O)c1=N.[Na+] [1-octyl cAMP-Na] | did not cause quality deterioration such as giving out of bad smell |
| CCCCNc1nc2c(N)ncnc2n1[C@@H]1O[C@@H]2COP(=O)(O)O[C@H]2[C@H]1O [8-butylamino cAMP-Na] | did not cause quality deterioration such as giving out of bad smell |
| CCCCSc1nc2c(N)ncnc2n1[C@@H]1O[C@@H]2COP(=O)(O)O[C@H]2[C@H]1O [8-butylthio cAMP-Na] | did not cause quality deterioration such as giving out of bad smell |
| Nc1ncnc2c1nc(Cl)n2[C@@H]1O[C@@H]2COP(=O)(O)O[C@H]2[C@H]1O [8-chloro cAMP-Na] | did not cause quality deterioration such as giving out of bad smell |
| CNc1nc2c(N)ncnc2n1[C@@H]1O[C@@H]2COP(=O)(O)O[C@H]2[C@H]1O [8-methylamino cAMP-Na] | did not cause quality deterioration such as giving out of bad smell |
| CSc1nc2c(N)ncnc2n1[C@@H]1O[C@@H]2COP(=O)(O)O[C@H]2[C@H]1O [8-methylthio cAMP-Na] | did not cause quality deterioration such as giving out of bad smell |

Same assay, conditions: Table V; 0.05% in hair tonic, 30° C., 3 months

| Stability S.E. (Sensory Evaluation) | Compound |
| --- | --- |
| .circleincircle. | CCCCNc1nc2c(N)ncnc2n1[C@@H]1O[C@@H]2COP(=O)(O)O[C@H]2[C@H]1O [8-butylamino cAMP-Na] |
| .circleincircle. | CCCCSc1nc2c(N)ncnc2n1[C@@H]1O[C@@H]2COP(=O)(O)O[C@H]2[C@H]1O [8-butylthio cAMP-Na] |
| .circleincircle. | CCOc1nc2c(N)ncnc2n1[C@@H]1O[C@@H]2COP(=O)(O)O[C@H]2[C@H]1O [8-ethoxy cAMP-Na] |

| Compound | Stability S.E. (Sensory Evaluation) |
| --- | --- |
| CCCCOc1nc2c(N)ncnc2n1[C@@H]1O[C@@H]2COP(=O)(O)O[C@H]2[C@H]1O [8-butoxy cAMP-Na] | .circleincircle. |

Test system: not listed separately
Experiment: Stability: residual amount of test compound after standing at 30° C. for 3 months, liquid chromatography
Assay type: physicochemical
Settings: Example 6; hair tonic
Experimental: as §1
as §1, with “compositions” for “hair tonic type preparations”, “by” for “by means of”, “test. […] In addition, the abbreviation P means the averaged added molar number of ethylene oxide residues.” for “test.”

| stability (in words) | Compound |
| --- | --- |
| stable | Nc1ncnc2c1nc(SCc1ccccc1)n2[C@@H]1O[C@@H]2COP(=O)(O)O[C@H]2[C@H]1O [8-benzylthio cAMP-Na] |
| stable | CCOc1nc2c(N)ncnc2n1[C@@H]1O[C@@H]2COP(=O)(O)O[C@H]2[C@H]1O [8-ethoxy cAMP-Na] |

| Compound | stability (in words) |
| --- | --- |
| CCCCOc1nc2c(N)ncnc2n1[C@@H]1O[C@@H]2COP(=O)(O)O[C@H]2[C@H]1O [8-butoxy cAMP-Na] | stable |

Same assay, conditions: Example 7; hair cream

| Compound | stability (in words) |
| --- | --- |
| CCCCn1cnc2c(ncn2[C@@H]2O[C@@H]3COP(=O)([O-])O[C@H]3[C@H]2O)c1=N.[Na+] [1-butyl cAMP-Na] | stable |
| CCn1cnc2c(ncn2[C@@H]2O[C@@H]3COP(=O)([O-])O[C@H]3[C@H]2O)c1=N.[Na+] [1-ethyl cAMP-Na] | stable |
| CCCCCCCCn1cnc2c(ncn2[C@@H]2O[C@@H]3COP(=O)([O-])O[C@H]3[C@H]2O)c1=N.[Na+] [1-octyl cAMP-Na] | stable |
| CCCCNc1nc2c(N)ncnc2n1[C@@H]1O[C@@H]2COP(=O)(O)O[C@H]2[C@H]1O [8-butylamino cAMP-Na] | stable |
| CCCCSc1nc2c(N)ncnc2n1[C@@H]1O[C@@H]2COP(=O)(O)O[C@H]2[C@H]1O [8-butylthio cAMP-Na] | stable |

Continued, values first:

| stability (in words) | Compound |
| --- | --- |
| stable | Nc1ncnc2c1nc(Cl)n2[C@@H]1O[C@@H]2COP(=O)(O)O[C@H]2[C@H]1O [8-chloro cAMP-Na] |
| stable | CNc1nc2c(N)ncnc2n1[C@@H]1O[C@@H]2COP(=O)(O)O[C@H]2[C@H]1O [8-methylamino cAMP-Na] |
| stable | CSc1nc2c(N)ncnc2n1[C@@H]1O[C@@H]2COP(=O)(O)O[C@H]2[C@H]1O [8-methylthio cAMP-Na] |

Same assay, conditions: hair tonic, Table V; 0.05% in hair tonic, 30° C., 3 months; read-out: Stability Residue(%)

| remaining at 2190 h | Compound |
| --- | --- |
| 99.5% | CCCCNc1nc2c(N)ncnc2n1[C@@H]1O[C@@H]2COP(=O)(O)O[C@H]2[C@H]1O [8-butylamino cAMP-Na] |
| 99.9% | CCCCSc1nc2c(N)ncnc2n1[C@@H]1O[C@@H]2COP(=O)(O)O[C@H]2[C@H]1O [8-butylthio cAMP-Na] |
| 99.8% | CCOc1nc2c(N)ncnc2n1[C@@H]1O[C@@H]2COP(=O)(O)O[C@H]2[C@H]1O [8-ethoxy cAMP-Na] |

| Compound | remaining at 2190 h |
| --- | --- |
| CCCCOc1nc2c(N)ncnc2n1[C@@H]1O[C@@H]2COP(=O)(O)O[C@H]2[C@H]1O [8-butoxy cAMP-Na] | 99.9% |

Test system: grayed hair (melanocytes)
Experiment: Inhibition of generation of grayed hair in stressed black mice
Assay type: in vivo
Settings: Table V, 0.05% test compound in hair tonic, 0.1 ml twice a day, 1 month, control 17.1
Experimental: It is known that stress is one of the causes of graying of the hair. […] Moreover, the stability of the composition with time was also estimated.
as §1
as §1, with “compositions” for “hair tonic type preparations”, “by” for “by means of”, “test. […] In addition, the abbreviation P means the averaged added molar number of ethylene oxide residues.” for “test.”

| Compound | Rate of Grayed Hair (%) |
| --- | --- |
| CCCCOc1nc2c(N)ncnc2n1[C@@H]1O[C@@H]2COP(=O)(O)O[C@H]2[C@H]1O [8-butoxy cAMP-Na] | 6.0% |
| CCCCNc1nc2c(N)ncnc2n1[C@@H]1O[C@@H]2COP(=O)(O)O[C@H]2[C@H]1O [8-butylamino cAMP-Na] | 7.1% |
| CCCCSc1nc2c(N)ncnc2n1[C@@H]1O[C@@H]2COP(=O)(O)O[C@H]2[C@H]1O [8-butylthio cAMP-Na] | 6.5% |
| CCOc1nc2c(N)ncnc2n1[C@@H]1O[C@@H]2COP(=O)(O)O[C@H]2[C@H]1O [8-ethoxy cAMP-Na] | 5.3% |
